Assay results: patent EP2948433B1, “ATGLISTATIN AS LIPASE INHIBITOR” (Technische Universität Graz, priority 2013, dated 2014)
Where a name gives a salt, the structure may show the parent alone.

Assays:
[1] = system: ATGL; details: expressed ATGL (Jenkins 2004) or native ATGL in hepatocytes (Chung 2008); cited from earlier work
[2] = target: T1, recombinant ATGL (Mus musculus, UniProt Q8BJ56); assay: TG hydrolase activity of E. coli lysates overexpressing recombinant strep-tagged ATGL and CGI-58, radiolabeled triolein substrate; assay type: biochemical; details: inhibition of the activity of recombinant ATGL
T1 construct: Strep-tag; made in house; host or cells: E. coli (XL-1), vector pASK-IBA5+; crude lysate supernatant, not purified
T1 sequence (Q8BJ56 1-486): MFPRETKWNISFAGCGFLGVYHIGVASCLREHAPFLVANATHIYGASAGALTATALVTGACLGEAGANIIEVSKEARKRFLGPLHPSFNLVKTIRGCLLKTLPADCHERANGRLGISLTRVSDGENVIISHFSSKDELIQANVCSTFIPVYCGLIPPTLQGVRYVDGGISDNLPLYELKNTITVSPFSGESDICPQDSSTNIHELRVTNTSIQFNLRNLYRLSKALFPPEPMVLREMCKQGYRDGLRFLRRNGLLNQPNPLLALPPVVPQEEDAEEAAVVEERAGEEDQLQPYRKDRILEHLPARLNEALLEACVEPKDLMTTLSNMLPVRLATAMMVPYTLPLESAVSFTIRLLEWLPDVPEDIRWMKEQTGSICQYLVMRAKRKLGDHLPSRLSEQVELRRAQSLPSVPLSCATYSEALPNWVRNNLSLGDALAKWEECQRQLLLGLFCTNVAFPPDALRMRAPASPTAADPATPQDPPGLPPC
Description: • Figure 1. Structure of compounds 1 to 3 (reference) and compound 4 (atglistatin) and effect on ATGL activity. For determination of lipase activity, lysates of E. coli overexpressing recombinant strep-tagged ATGL and CGI-58 were incubated with a substrate containing radiolabeled [9,10-3H(N)]-triolein. Subsequently, FA were extracted and quantified by liquid scintillation counting. Lysates of cells expressing empty vector were set as blank. Inhibitors were solubilized in DMSO and added at the indicated concentrations. DMSO alone was used as negative control. (A) Structure and IC50 values of compounds 1-4. (B) Dose-dependent inhibition of ATGL in the presence of compound 3 and 4. […] (C) Lineweaver-Burk plots for kinetic analysis of ATGL inhibition. Experiments were performed at varying concentrations of substrate (0.05 - 3 mM) in presence and absence of compound 4 (Atglistatin). […] Data are presented as mean +/-S.D. of triplicate determinations. Data for compound 4 are representative for at least three independent experiments. • Figure 2. Selectivity of Atglistatin. Lipase activity of ATGL, HSL, lipoprotein lipase, and pancreatic lipase was determined using triolein as substrate. MGL activity was detected in the presence of rac-(1,3)-monooleoylglycerol as substrate. Inhibitors were solubilized in DMSO and added at the indicated concentrations. DMSO alone was used as negative control. (A) Dose-dependent inhibition of TG hydrolase activity in WAT lysates obtained from wild-type and ATGL-ko mice. (B) Inhibition of TG hydrolase activity in wild-type WAT lysates by Atglistatin (40 µM) and by the HSL inhibitor Hi 76-0079 (20 µM). (C) Effect of Atglistatin on murine MGL (purified from E. coli), and murine HSL (overexpressed in COS-7 lysates) activity. (D) Effect of Atglistatin on purified bovine LPL (Sigma) and pancreatic lipase (from porcine pancreas, Sigma). Data are presented as mean +/- S.D. of triplicate determinations and are representative for at least three independent experiments (p < 0.05 **, p < 0.01; ***, p < 0.001). • Figure 3 Inhibition of lipolysis in 3T3-L1 adipocytes and WAT organ cultures. (A,B) Differentiated 3T3 cells were preincubated with the indicated concentrations of Atglistatin. Thereafter, the medium was replaced by DMEM containing 2% BSA (fatty acid free), 10 µM forskolin, in the presence or absence of inhibitors. The release of FA (A) and glycerol (B) in the media was determined using commercial kits. Basal FA and glycerol release (not shown) was barely detectable under the applied conditions. Data are presented as mean +/- SD and are representative for 2 independent experiments. (C-F) Effect of Atglistatin on WAT basal (C, D) and forskolin-stimulated (E, F) lipolysis. Adipose tissue pieces (∼15 mg, n=5 for each concentration) of wild-type mice were cultured for 8 h in DMEM containing 2 % FA-free BSA and the indicated concentrations of Atglistatin. Subsequently, the medium was replaced by identical fresh medium and samples were collected after incubation for another hour in the presence or in the absence of 10 µM forskolin. Atglistatin was solubilized in DMSO and DMSO alone was used as negative control. Data are presented as mean +/- S.D. (*, p < 0.05 **, p < 0.01; ***, p < 0.001). • Figure 4 Inhibition of lipolysis in vivo. […] At the indicated timepoints blood was taken retroorbitally and plasma parameters were measured using commercial kits. […] 8 h after gavage blood was taken retroorbitally and plasma parameters were measured using commercial kits. […]

[3] = In vitro toxicity tests (not specified further); assay type: cell-based
[4] = Water solubility of the hydrochloride; assay type: physicochemical; details: hydrochloride obtained as colourless oil
Description: (§1) As some compounds are not readily soluble in water, it may be preferable to prepare a more readily soluble form of a compound. A possible way to increase the water solubility of a compound is to generate its hydrochloride. The compound is suspended in dest. H2O and a 25 % HCl-solution is added until the solid is completely dissolved. Next, 1 M Tris-HCl-buffer is added to bring the solution to pH 7.4. This procedure yields usually good results. However, in some cases the compound may not be soluble or may precipitate when the pH of the solution elevated to bring it close to neutral pH. In this case, an alternative procedure is provided. The compound is suspended in diethyl ether and dichloromethane is added until the solid is completely dissolved. Then hydrochloric acid is added and all of the solvents are removed under reduced pressure and dried on high vacuum. The resulting colourless oil is water soluble. This procedure was followed with Atglistatin (compound 4) where NMR confirmed the structure of Atglistatin hydrochloride. The water soluble inhibitor may be injected in mice and its impact on the release of free fatty acids (FFA) and glycerol, measured.

[5] = Injection of the water soluble inhibitor in mice, release of FFA and glycerol; assay type: in vivo
Description: as §1
Atglistatin (compound 4) was administrated orally by gavage in olive oil (200 µl) or by IP injection. For IP administration, the hydrochloride was generated by the addition of 25% HCl resulting in a water soluble compound. […]

## O=C1O/C(=C/Br)CC[C@@H]1c1cccc2ccccc12 [(R)-Bromoenol lactone]
[1]
  ATGL inhibitory activity: has been demonstrated

## CCOC(=O)c1cccc(-c2ccc(OCC)cc2)c1 [Compound 3, Ethyl 4'-ethoxybiphenyl-3-carboxylate, reference compound]
[2]
  IC50: 12 µM

## CCOC(=O)c1nn(-c2ccc(OCC)cc2)cc1O [Compound 1, Ethyl 1-(4-ethoxyphenyl)-4-hydroxy-1H-pyrazole-3-carboxylate]
[3]
  toxicity in in vitro tests: some limited toxicity

## CN(C)C(=O)Nc1cccc(-c2ccc(N(C)C)cc2)c1 [Atglistatin hydrochloride]
[4]
  water solubility: water soluble
[5]
  release of free fatty acids (FFA) and glycerol after injection: reduction in the release of free fatty acids (FFA) and glycerol

## CCOC(=O)c1ccn(-c2ccc(OCC)cc2)n1 [Compound 2, Ethyl 1-(4-ethoxyphenyl)-1H-pyrazole-3-carboxylate, reference compound]
[2]
  IC50: 40 µM
[3]
  toxicity in in vitro tests: some limited toxicity
